The values that follow come from PMC10097024, “Cytotoxic and Antibacterial Prenylated Acylphloroglucinols from Hypericum olympicum L” (Plants, 2023).

pIC50: −log10 of the molar value. “And” between values parts separate entries of the source, which are not always exact repeats. Identical values can stand only once. Like-named read-outs stand apart in the source and are kept apart here.

Test [1] concerns human tumor (MDA-MB-231, EJ, K-562, HL-60 and HL-60/DOX) cell lines. In words: MTT cytotoxicity test, tumor cell line panel. In kind it is cell-based. The source says: (§1) The group of human cell lines used in this study were represented by the tumor cell lines MDA-MB (breast carcinoma), EJ (urinary bladder carcinoma), K-562 (chronic myeloid leukemia), HL-60 (acute pre-myeloid leukemia), HL-60/DOX (multi-drug resistant HL-60 cell line, with over expression of MRP-1) and the non-tumorigenic cell lines HEK-293 (embryonic kidney cells) and EA.hy926 (vascular endothelial cells). EJ, HL60 and EA.hy926 were purchased from American Type Culture Collection (ATCC) (Manassas, Virginia). The other cell lines were purchased from the German Collection of Microorganisms and Cell Cultures (DSMZ GmbH, Braunschweig, Germany). HL-60/DOX cell lines were generated by periodically treating HL-60 cells with anthracyclins. The conditions in which the cell culture flasks were maintained were as follows: 37 °C in an incubator “BB 16-Function Line” Heraeus (Kendro, Hanau, Germany) with 5% CO2 humidified atmosphere. The growth medium was 90% RPMI-1640, supplemented with 10% FBS and 2 mM L-glutamine. MDA-MB-231, EJ, HEK-293 and EA.hy926 cells were maintained as adherent monolayer cultures while all the other (leukemic) cell lines were grown as suspension type cultures. Cells were maintained in log phase: the adherent cell lines were subjected to trypsinization 1–2 times a week and the leukemic cell lines were passaged 2–3 times a week by removing of part of the cellular suspension and substituting it with fresh medium.
The evaluation of cytotoxic activity was conducted by MTT test as described previously. The median inhibitory concentration (IC50) values which represent the half-maximal concentration values were calculated from sigmoidal concentration–response curves, using non-linear regression analysis (Curve fit, GraphPad Prizm 5.0 software, GraphPad Software Inc., San Diego, CA, USA). The selectivity index was calculated as the ratio of the IC50 of a non-cancerous line (HEK-293 or EA.hy926) and the average IC50 of all chemosensitive tested tumor cell lines (x). Therefore, SI=IC50HEK-293/IC50x . The resistance index (RI) was calculated as the ratio of IC50 of the multi-drug resistant HL-60/DOX cell line and the IC50 of its parent cell line: RI=IC50HL-60/DOX/IC50HL-60 .
On the technique in general: Tetrazolium assays rely on reduction of a dye to a coloured formazan, in cell work by metabolically active cells.

The next test concerns HL-60. In words: Antiproliferative test (NCI methodology). The test is classed as cell-based, human. The note with it: for GI50: HL-60, MTT readout; for TGI: HL-60, total growth inhibition.
Text: as §1
(§2) The test was performed according the methodology of National Cancer Institute (NCI), USA [116]. Briefly, cells were seeded into 96-well plates in the same way as for an MTT test and after 24 h, the absorption of one plate of each cell line was measured as in the MTT assay described above, to represent a measurement of the cell population at the time of drug-addition (Tz). The rest of the plates were treated with the tested compounds and the experiment for them continued as the MTT-method. Using the absorbance measurements [(Tz, untreated control growth (C) and test growth in the present of the compounds (Ti)], the percentage growth is calculated at each of the tested concentrations of the compounds. Percentage growth inhibition (GI) is calculated as GI%=Ti−Tz/C−Tz×100 for concentrations for which Ti ≥ Tz. For concentrations in which Ti < Tz it is calculated as GI%=Ti−Tz/Tz×100 . Two dose parameters are calculated for each experimental agent. Growth inhibition of 50% (GI50) is calculated from Ti−Tz/C−Tz×100=50 . This is the drug concentration resulting in a 50% reduction in the net protein increase (as measured by MTT-test) in control cells during the drug incubation. The drug concentration resulting in total growth inhibition (TGI) is calculated from Ti = Tz.

Another test concerns K-562. In words: Antiproliferative test (NCI methodology). The test is classed as cell-based, human. The following applies: for GI50: K-562, MTT readout; for TGI: K-562, total growth inhibition.
Text: as §1, §2

The next test has as its system MDA-MB-231. In words: Antiproliferative test (NCI methodology). The test is classed as cell-based, human. The note with it: for GI50: MDA-MB-231, MTT readout; for TGI: MDA-MB-231, total growth inhibition.
Text: as §1, §2

For the next test, the system named is MRSA biofilm. In words: Biofilm assay of MRSA. In kind it is cell-based, Staphylococcus aureus. The note with it: for Absorbance at 550 nm of the MRSA biofilm (crystal violet): replicate wells; for IC50: Staphylococcus aureus. The source says:
The Gram-positive bacterial strains that were examined for susceptibility were: Staphylococcus aureus (ATCC 29213, American Type Cell Culture Collection, Manassas, VA, USA), Staphylococcus aureus—MRSA (NBIMCC 8327-resistant to methicillin and oxacillin, National Bulgarian Collection for Industrial Microorganisms and Cell Cultures, Sofia, Bulgaria), Enterococcus faecalis (ATCC 29212) and Streptococcus pyogenes (SAIMC 10535, Collection of the Stephan Angeloff Institute of Microbiology, Sofia, Bulgaria). The only Gram-negative bacterial strain used was Escherichia coli (ATCC 35218). Bacteria were maintained in Trypticase Soy Broth (TSB, Himedia, India) at 37 °C, aerobic conditions. For the experiments brain heart infusion (BHI) broth (#M210 HiMedia, Mumbai, India) was used for E. faecalis and S. pyogenes and Mueller Hinton broth (MHB, #M0405B) from Thermo Scientific-Oxoid (Basingstoke, UK)—for all other strains.
The bacterial inoculum was prepared as described above for the BMD. […] After that an optimized protocol was applied for the visualization of the biofilm. Firstly, the supernatant was removed, and planktonic cells were removed by washing the wells carefully 3× with 200 μL/well PBS. Then, fixing of the remaining cells was performed by incubation with 200 μL/well methanol for 15 sec at room temperature. The methanol was removed and the plate was dried by air for 5–10 s. Next, 50 μL of 2% Hucker crystal violet was poured into the wells and excess stain was rinsed off by running tap water. After that, the cells were air dried and the biofilm formation in the wells was documented microscopically (40×, Inverted trinocular biological microscope model BIB-100 and digital camera B-CAM16, application software B-View, Boeco, Hamburg, Germany). Then the dye bound to biofilm in the wells was re-solubilized with 160 μL 33% acetic acid and the absorbance of each well was measured at 550 nm with lid (Table S1 in Supplementary Materials). […] MBIC were assessed visually and MBIC50 were calculated by GraphPad Prism software with a mathematical model for a dose–response relationship (variable slope) after normalization of the data and logarithmic transformation of the applied concentrations (X-data).

In another test the test system is SKW-3. The arrangement: method as in PMID 26411018. The following applies: human leukemia cell line SKW-3, dissolved in DMSO; cited from earlier work.
For the next test, the system named is BV-173. Also noted: method as in PMID 26411018. The note with it: human leukemia cell line BV-173, dissolved in DMSO; cited from earlier work.
[2] abbreviates: MRSA biofilm, assessed visually.
[3] abbreviates: MRSA biofilm, interval in brackets, read-out: MBIC50 (median biofilm inhibitory concentration).
Where [4] appears, read: Homo sapiens, average IC50 of all chemo-sensitive tested tumor cell lines, read-out: x.

On to “(1R,5R,7S,8R)-4-hydroxy-5,8-dimethyl-3,7-bis(3-methylbut-2-en-1-yl)-1-(2-methylbutanoyl)-8-(4-methylpent-3-en-1-yl)bicyclo[3.3.1]non-3-ene-2,9-dione [Compound 4]”, for which the pIC50 was 4.82 in test [1] (average IC50 of all chemo-sensitive tested tumor cell lines, read-out: x) and 5.87 in the test with MRSA biofilm (setting [3]). Further, the GI50 turned out to be 41.1 µM with HL-60, 16 µM in the test with K-562 and 0.52 µM with MDA-MB-231. For the same compound, the total growth inhibition concentration (TGI) in the test with HL-60 is 55.55 µM; in the test with K-562, 18.38 µM; with MDA-MB-231, 0.81 µM. Also, the “Absorbance at 550 nm of the MRSA biofilm (crystal violet)” value (from here on “Absorbance at 550 nm”) in the test with MRSA biofilm (0.78 mg/L) is 0.324 and 0.229 and 0.230; with MRSA biofilm (1.56 mg/L), 0.248 and 0.194 and 0.193; in the test with MRSA biofilm (3.13 mg/L) it was 0.264 and 0,195 and 0,139; with MRSA biofilm (6.25 mg/L), 0.184 and 0.121 and 0.092; in the test on MRSA biofilm (12.5 mg/L) it was 0.152 and 0.150 and 0.072. Besides, the “MBIC (minimum biofilm inhibitory concentration)” value in the test on MRSA biofilm (MRSA biofilm) amounted to 25.17 µM; with MRSA biofilm (setting [2]) it was 12.5 mg/L. For the same compound, the “MBIC50 (median biofilm inhibitory concentration)” value in the test with MRSA biofilm (MRSA biofilm, interval in brackets) is 0.67 (0.39 to 1.17) mg/L.
Regarding `CC(C)=CCC[C@]1(C)[C@@H](CC=C(C)C)C[C@]2(C)C(=O)C(CC=C(C)C)=C(O)[C@@]1(C(=O)C(C)C)C2=O` [Compound 3, hyperpolyphyllirin/hyperibine J], the pIC50 in test [1] (setting [4]) is 5.21; in the test on SKW-3, 5.28; in the test with BV-173, 5.24. Besides, the values for the concentration for total growth inhibition (TGI) in the test with HL-60, with K-562 and in the test with MDA-MB-231 were 47.43 µM, 0.77 µM and 2.96 µM, respectively. Moreover, the 50% growth inhibitory concentration (GI50) with HL-60 (Homo sapiens) was 41.1 µM; in the test with K-562 (Homo sapiens, K562), 0.44 µM; in the test with MDA-MB-231 (Homo sapiens), 1.93 µM. Moreover, the “Absorbance at 550 nm” value is 0.347 and 0.336 in the test on MRSA biofilm (0.125 mg/L); 0.376 and 0.403 with MRSA biofilm (0.25 mg/L); 0.276 and 0.394 in the test with MRSA biofilm (0.5 mg/L); 0.249 and 0.184 in the test with MRSA biofilm (1 mg/L); 0.353 and 0.444 in the test on MRSA biofilm (2 mg/L); 0.110 and 0.099 in the test on MRSA biofilm (4 mg/L). In addition, the MBIC with MRSA biofilm (MRSA biofilm) was determined as 4 mg/L. The “MBIC (minimum biofilm inhibitory concentration)” value with MRSA biofilm (MRSA biofilm) turned out to be 8.29 µM; in the test with MRSA biofilm (setting [2]) it was 4.0 mg/L. In addition, the IC50 with MRSA biofilm (setting [3]) was 0.17 µg/mL and 350 nM.
`CC(C)=CCC[C@]1(C)[C@@H](CC=C(C)C)C[C@H]2C(=O)[C@]1(C(=O)C(C)C)C(=O)C(CC=C(C)C)=C2O` [Compound 5, (1S,5R,7S,8R)-4-hydroxy-1-isobutyryl-8-methyl-3,7-bis(3-methylbut-2-en-1-yl)-8-(4-methylpent-3-en-1-yl)bicyclo[3.3.1]non-3-ene-2,9-dione]: the pIC50 in test [1] (setting [4]) was 5.88; in test [1] (Homo sapiens, tumor cell lines, MTT assay, read-out: IC50 (range over the tumor cell lines)), 5.77 to 5.94. Moreover, the “Absorbance at 550 nm” value in the test with MRSA biofilm (0.063 mg/L) was 0.978 and 1.044; with MRSA biofilm (0.125 mg/L) it was 0.926 and 0.790; in the test on MRSA biofilm (0.25 mg/L), 0.592 and 0.502; with MRSA biofilm (0.5 mg/L), 0.534 and 0.342; in the test on MRSA biofilm (1 mg/L), 0.332 and 0.406. The compound further displayed an MBIC in the test on MRSA biofilm (MRSA biofilm) of 0.5 mg/L. The results for the “MBIC (minimum biofilm inhibitory concentration)” value with MRSA biofilm (MRSA biofilm) and with MRSA biofilm (setting [2]) were 1.07 µM and 0.5 mg/L, respectively. For the same compound, in the test on MRSA biofilm (setting [3]), the IC50 is 0.05 µg/mL and 120 nM.

By GI50 is commonly meant the concentration at which growth is held to half of that of the control. The low end stands for more potent growth inhibition, the high end for less potent growth inhibition. Usually TGI stands for the concentration at which net growth stops.
